Counter-ions that a name gives are not always drawn. Like-named read-outs stand apart in the source and are kept apart here.

Type in all cases: biochemical
One test has as its target MMP-13 (Homo sapiens, UniProt P45452). Nature of the test: MMP-13 inhibition (thiopeptide or fluorescent peptide substrate).
The target of another test is MMP-9 (Homo sapiens, UniProt P14780). Nature of the test: MMP-9 inhibition (thiopeptide or fluorescent peptide substrate). Particulars: read-out: MMP-9 IC50.
In test [1] the target is TNF-α converting enzyme (TACE) (Homo sapiens, UniProt P78536). Nature of the test: TACE inhibition (fluorescent peptidyl substrate). Particulars: read-out: TACE IC50.
Another test deals with T1, MMP-1 (Homo sapiens, UniProt P03956).
T1 sequence (P03956 100-469): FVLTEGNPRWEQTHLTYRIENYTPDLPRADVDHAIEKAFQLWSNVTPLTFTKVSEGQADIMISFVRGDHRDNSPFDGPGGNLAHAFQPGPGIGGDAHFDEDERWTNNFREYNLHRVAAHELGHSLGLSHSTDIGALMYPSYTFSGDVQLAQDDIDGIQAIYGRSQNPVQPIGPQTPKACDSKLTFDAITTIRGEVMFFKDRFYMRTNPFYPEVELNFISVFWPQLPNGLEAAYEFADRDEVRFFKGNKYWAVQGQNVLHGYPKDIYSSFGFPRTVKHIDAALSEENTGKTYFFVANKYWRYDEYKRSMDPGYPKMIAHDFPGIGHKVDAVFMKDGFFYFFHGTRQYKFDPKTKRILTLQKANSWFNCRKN
Nature of the test: MMP-1 inhibition (thiopeptide or fluorescent peptide substrate). To be noted: read-out: MMP-1 IC50.

[2] abbreviates: Table 10, read-out: MMP-13 IC50.
Where [3] appears, read: Table 11, read-out: MMP-13 IC50.

Chain of TNF-α converting enzyme (TACE) (P78536 215-824, species assumed): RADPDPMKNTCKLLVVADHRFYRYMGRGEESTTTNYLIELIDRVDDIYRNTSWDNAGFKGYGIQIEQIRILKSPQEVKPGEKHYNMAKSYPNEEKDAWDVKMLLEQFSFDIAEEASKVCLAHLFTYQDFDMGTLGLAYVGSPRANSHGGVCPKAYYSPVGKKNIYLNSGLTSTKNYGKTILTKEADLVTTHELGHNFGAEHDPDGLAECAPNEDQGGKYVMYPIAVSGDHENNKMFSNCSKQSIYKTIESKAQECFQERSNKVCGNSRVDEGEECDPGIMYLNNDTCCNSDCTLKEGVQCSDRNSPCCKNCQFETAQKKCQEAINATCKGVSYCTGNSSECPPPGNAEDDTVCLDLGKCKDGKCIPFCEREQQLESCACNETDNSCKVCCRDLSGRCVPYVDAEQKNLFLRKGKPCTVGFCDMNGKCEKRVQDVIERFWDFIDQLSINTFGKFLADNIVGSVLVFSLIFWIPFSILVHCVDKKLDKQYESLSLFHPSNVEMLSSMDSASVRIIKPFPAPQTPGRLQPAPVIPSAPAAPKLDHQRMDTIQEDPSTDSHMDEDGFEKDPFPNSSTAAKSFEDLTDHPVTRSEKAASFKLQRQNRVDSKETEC
Chain of MMP-9 (P14780 94-707): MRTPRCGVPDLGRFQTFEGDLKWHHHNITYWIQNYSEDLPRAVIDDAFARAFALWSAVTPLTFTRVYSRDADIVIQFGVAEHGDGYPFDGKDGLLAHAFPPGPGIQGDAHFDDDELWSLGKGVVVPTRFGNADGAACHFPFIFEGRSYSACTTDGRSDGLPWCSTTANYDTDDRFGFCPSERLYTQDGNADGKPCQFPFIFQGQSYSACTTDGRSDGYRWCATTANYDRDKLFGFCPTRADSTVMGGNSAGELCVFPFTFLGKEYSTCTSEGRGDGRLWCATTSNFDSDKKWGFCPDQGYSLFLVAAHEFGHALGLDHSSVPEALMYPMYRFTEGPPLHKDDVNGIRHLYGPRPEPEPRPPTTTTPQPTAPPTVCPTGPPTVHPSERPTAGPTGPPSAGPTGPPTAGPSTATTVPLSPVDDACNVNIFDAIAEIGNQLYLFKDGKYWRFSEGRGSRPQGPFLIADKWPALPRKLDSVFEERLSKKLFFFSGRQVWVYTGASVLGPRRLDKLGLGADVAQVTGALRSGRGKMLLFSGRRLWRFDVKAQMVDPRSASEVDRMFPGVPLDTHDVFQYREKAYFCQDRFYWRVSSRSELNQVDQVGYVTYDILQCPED

A word on the IC50: it is the concentration that inhibits the measured activity by half. Regarding `CC#CCOc1ccc(S(=O)(=O)N(C)[C@@H](C(=O)NO)c2ccc(O[C@H]3CCNC3)cc2)cc1` [Example 190, (2R)-2-[{[4-(2-Butynyloxy)phenyl]sulfonyl}(methyl)amino]-N-hydroxy-2-{4-[(3S)-pyrrolidinyloxy]phenyl}ethanamide], the IC50 turned out to be 29 nM at MMP-13 (read-out: MMP-13 IC50), 37 nM on MMP-9, 32 nM in test [1] and 527 nM on MMP-1.

For `CC#CCOc1ccc(S(=O)(=O)N2CCN(C)CC2C(=O)NO)cc1` (centres unmarked) [Example 56, 1-(4-but-2-ynyloxy-Benzenesulfonyl)-4-methyl-piperazine-2-carboxylic Acid Hydroxyamide Hydrochloride], the IC50 stood at 158 nM on MMP-13 (read-out: MMP-13 IC50), 667 nM at MMP-9, 41 nM in test [1] and 3340 nM on MMP-1.

On to `CC(C)(C)OC(=O)NCCCC#CCOc1ccc(S(=O)(=O)N2CCSC(C)(C)[C@@H]2C(=O)NO)cc1` [Example 250, tert-Butyl 6-[4-({(3S)-3-[(Hydroxyamino)carbonyl]-2,2-dimethylthiomorpholinyl}sulfonyl)phenoxy]-4-hexynylcarbamate], for which the IC50 at MMP-13 (setting [2]) was 1.7 nM; on MMP-9 (Table 10) it was 160 nM; in test [1] (Table 10) it was 153 nM; on MMP-1 (Table 10) it was 42 nM.

As for `CC#CCOc1ccc(S(=O)(=O)N(C)C(C(=O)NO)c2ccc(OCCN3CCNCC3)cc2)cc1` (centres unmarked) [Example 186, 2-[{[4-(2-butynyloxy)phenyl]sulfonyl}(methyl)amino]-N-hydroxy-2-{4-[2-(1-piperazinyl)ethoxy]phenyl}acetamide], the IC50 came to 21 nM on MMP-13 (read-out: MMP-13 IC50), 32 nM at MMP-9, 31 nM in test [1] and 568 nM on MMP-1.

For `CC#CCOc1ccc(S(=O)(=O)N(C)CC(=O)NO)cn1` [Example 131, 2-[(6-but-2-ynyloxy-Pyridine-3-sulfonyl)-methyl-amino]-N-hydroxy-acetamide], the IC50 at MMP-13 (read-out: MMP-13 IC50) is 428 nM; on MMP-9 it was 402 nM; in test [1], 29 nM; on MMP-1, roughly 10000 nM.

In the case of `CC#CCOc1ccc(S(=O)(=O)N(C)C(C(=O)NO)C(C)(C)SCc2cccnc2)cc1` (centres unmarked) [Example 152, 2-[(4-but-2-ynyloxy-Benenesulfonyl)-methyl-amino]-N-hydroxy-3-methyl-3-(pyridin-3-ylmethylsulfanyl)-butyramide], the concentration for half-maximal inhibition (IC50) on MMP-13 (MMP-13 IC50) worked out at 1.7 nM; on MMP-9, 3.7 nM; in test [1] it was 74 nM.

As for `CC#CCOc1ccc(S(=O)(=O)N2CCN(C(=O)c3cccs3)CC2C(=O)NO)cc1` (centres unmarked) [Example 226, 1-(4-but-2-ynyloxy-Benzenesulfonyl)-4-(thiophene-2-carbonyl)-piperazine-2-carboxylic Acid Hydroxyamide], the IC50 amounted to 119 nM at MMP-13 (read-out: MMP-13 IC50), 251 nM at MMP-9 and 12 nM in test [1].

Regarding `CC#CCOc1ccc(S(=O)(=O)N2CCN(C(=O)N(CC)CC)CC2C(=O)NO)cc1` (centres unmarked) [Example 216, 4-(4-but-2-ynyloxy-Benzenesulfonyl)-piperazine-1,3-dicarboxylic Acid 1-Diethylamide 3-Hydroxyamide], the IC50 is 97 nM on MMP-13 (read-out: MMP-13 IC50), 221 nM on MMP-9 and 28 nM in test [1].

For the molecule `CC#CCOc1ccc(S(=O)(=O)N2CCN(Cc3ccccc3)CCC2C(=O)NO)cc1` (centres unmarked) [Example 290, 1-Benzyl-4-{[4-(2-butynyloxy)phenyl]sulfonyl}-N-hydroxy-1,4-diazepane-5-carboxamide], the IC50 at MMP-9 worked out at 25 nM; in test [1] it was 83 nM; on MMP-1 it was 287 nM.

Regarding `CC#CCOc1ccc(S(=O)(=O)N2CCN(C(=O)OCc3ccccc3)CC2C(=O)NO)cc1` (centres unmarked) [Example 219, Benzyl 4-{[4-(2-Butynyloxy)phenyl]sulfonyl}-3-[(hydroxyamino)carbonyl]-1-piperazinecarboxylate], the IC50 was determined as 10 nM at MMP-13 (read-out: MMP-13 IC50), 45 nM at MMP-9 and 176 nM at MMP-1.

Take `CC#CCOc1ccc(S(=O)(=O)N2CCNCC2C(=O)NO)cc1` (centres unmarked) [Example 214, 1-(4-but-2-ynyloxy-Benzenesulfonyl)-piperazine-2-carboxylic Acidhydroxyamide]: the half-maximal inhibitory concentration (IC50) at MMP-13 (read-out: MMP-13 IC50) stood at 7.6 nM; on MMP-9 it was 14 nM; in test [1] it was 23 nM.

With `CC#CCOc1ccc(S(=O)(=O)N2CCN(C(=O)OC)CC2C(=O)NO)cc1` (centres unmarked) [Example 228, 4-(4-but-2-ynyloxy-Benzenesulfonyl)-3-hydroxycarbamoyl-piperazine-1-carboxylic Acid Methyl Ester], the IC50 is 9.2 nM on MMP-13 (read-out: MMP-13 IC50), 71 nM on MMP-9 and 9 nM in test [1].

With `CC1(C)SCCN(S(=O)(=O)c2ccc(OCC#CCN)cc2)C1C(=O)NO` (centres unmarked) [Example 265, 4-({4-[(4-Amino-2-butynyl)oxy]phenyl}sulfonyl)-N-hydroxy-2,2-dimethyl-3-thiomorpholine Carboxamide], the IC50 amounted to 7.5 nM on MMP-13 (setting [2]), 8.7 nM on MMP-9 (Table 10) and 97 nM at MMP-1 (Table 10).

As to `CC#CCOc1ccc(S(=O)(=O)N2CCSC3(CCN(Cc4ccccc4)CC3)C2C(=O)NO)cc1` (centres unmarked) [Example 241, 9-Benzyl-4-{[4-(2-butynyloxy)phenyl]sulfonyl}-N-hydroxy-1-thia-4,9-diazaspiro[5.5]undecane-5-carboxamide], the IC50 on MMP-13 (Table 9, read-out: MMP-13 IC50) amounted to 0.5 nM; in test [1] (Table 9), 786 nM; on MMP-1 (Table 9), 3.1 nM.

With `CC(=O)OCCCCC#CCOc1ccc(S(=O)(=O)N2CCSC(C)(C)[C@@H]2C(=O)NO)cc1` [Example 268, 7-[4-({(3S)-3-[(Hydroxyamino)carbonyl]-2,2-dimethylthiomorpholinyl}sulfonyl)phenoxy]-5-heptynyl Acetate], the IC50 on MMP-13 (setting [2]) is 2.9 nM; in test [1] (Table 10), 78 nM; at MMP-1 (Table 10) it was 29 nM.

As for `CC#CCOc1ccc(S(=O)(=O)N2C[C@H](CC(=O)N(C)C)SC(C)(C)[C@@H]2C(=O)NO)cc1` [Example 281, (3S,6S)-4-{[4-(2-Butynyloxy)phenyl]sulfonyl}-6-[2-(dimethylamino)-2-oxoethyl]-N-hydroxy-2,2-dimethyl-3-thiomorpholinecarboxamide], the IC50 at MMP-13 (setting [3]) turned out to be 23 nM; in test [1] (Table 11), 130 nM; on MMP-1 (Table 11), 50 nM.

For `CC1(C)SCCN(S(=O)(=O)c2ccc(OCC#CC#CCO)cc2)[C@H]1C(=O)NO` [Example 262, (3S)-N-Hydroxy-4-({4-[(6-hydroxy-2,4-hexadiynyl)oxy]phenyl}sulfonyl)-2,2-dimethyl-3-thiomorpholine Carboxamide], the IC50 on MMP-13 (setting [2]) was determined as 14 nM; in test [1] (Table 10), 39 nM; at MMP-1 (Table 10) it was 9.9 nM.

Take `CC#CCOc1ccc(S(=O)(=O)NC(C(=O)NO)c2ccc(OCCN3CCCC3)cc2)cc1` (centres unmarked) [Example 205, 2-({[4-(2-Butynyloxy)phenyl]sulfonyl}amino)-N-hydroxy-2-{4-[2-(1-pyrrolidinyl)ethoxy]phenyl}acetamide]: the values for the IC50 (at MMP-13 (read-out: MMP-13 IC50); in test [1]; at MMP-1) were 146 nM, 24 nM and roughly 10000 nM, respectively.

As for `CC1(C)SCCN(S(=O)(=O)c2ccc(OCC#Cc3ccccc3)cc2)[C@H]1C(=O)NO` [Example 254, (3S)-N-Hydroxy-2,2-dimethyl-4-({4-[(3-phenyl-2-propynyl)oxy]phenyl}sulfonyl)-3-thiomorpholine Carboxamide], the IC50 at MMP-13 (setting [2]) came to 11 nM; in test [1] (Table 10) it was 173 nM; on MMP-1 (Table 10), 13 nM.

On to `CC#CCOc1ccc(S(=O)(=O)N2C[C@H](CC(=O)NO)SC(C)(C)[C@@H]2C(=O)NO)cc1` [Example 279, (3S,6S)-4-{[4-(2-Butynyloxy)phenyl]sulfonyl}-N-hydroxy-6-[2-(hydroxyamino)-2-oxoethyl]-2,2-dimethyl-3-thiomorpholinecarboxamide], for which the values for the IC50 (on MMP-13 (setting [3]); in test [1] (Table 11); at MMP-1 (Table 11)) were 4.5 nM, 46 nM and 21 nM, respectively.

Take `CC#CCOc1ccc(S(=O)(=O)N2CCNCCC2C(=O)NO)cc1` (centres unmarked) [Example 292, 4-{[4-(2-Butynyloxy)phenyl]sulfonyl}-N-hydroxy-1,4-diazepane-5-carboxamide]: the IC50 was 33 nM on MMP-13 (read-out: MMP-13 IC50), 24 nM in test [1] and 274 nM on MMP-1.

Turning to `CC#CCOc1ccc(S(=O)(=O)N2C[C@H](CC(=O)NCCN(C)C)SC(C)(C)[C@@H]2C(=O)NO)cc1` [Example 284, (3S,6S)-4-{[4-(2-Butynyloxy)phenyl]sulfonyl}-6-(2-{[2-(dimethylamino)ethyl]amino}-2-oxoethyl)-N-hydroxy-2,2-dimethyl-3-thiomorpholinecarboxamide], the 50% inhibitory concentration (IC50) worked out at 76 nM on MMP-13 (setting [3]), 125 nM in test [1] (Table 11) and 31 nM on MMP-1 (Table 11).

As for `CC#CCOc1ccc(S(=O)(=O)N2[C@@H](C(=O)NO)C(C)(C)SC[C@@H]2C)cc1` [Example 270, (3S,5S)-4-{[4-(2-Butynyloxy)phenyl]sulfonyl}-N-hydroxy-2,2,5-trimethyl-3-thiomorpholinecarboxamide], the IC50 at MMP-13 (setting [3]) came out at 61 nM; in test [1] (Table 11), 86 nM; at MMP-1 (Table 11) it was 32 nM.

The record behind these values is patent US6716833B2, “Acetylenic α-amino acid-based sulfonamide hydroxamic acid tace inhibitors” (priority 1999, dated 2004).
